Results published in US6004965A, “Sulfonamides” (Hoffmann-La Roche Inc., priority 1994, dated 1999).

How the values were obtained:
[1] = target: T1, human ETA receptors (Homo sapiens, UniProt P25101); assay: Inhibition of endothelin binding to recombinant ETA receptors; settings: baculovirus-insect cell membranes, 20 pM 125I-endothelin, 20° C. for 2 hours or 4° C. for 24 hours, read-out: IC50 (inhibition of specific binding of 125I-endothelin)
T1 construct: made in house; host or cells: baculovirus-infected insect cells (membrane preparation)
T1 sequence (P25101 21-427): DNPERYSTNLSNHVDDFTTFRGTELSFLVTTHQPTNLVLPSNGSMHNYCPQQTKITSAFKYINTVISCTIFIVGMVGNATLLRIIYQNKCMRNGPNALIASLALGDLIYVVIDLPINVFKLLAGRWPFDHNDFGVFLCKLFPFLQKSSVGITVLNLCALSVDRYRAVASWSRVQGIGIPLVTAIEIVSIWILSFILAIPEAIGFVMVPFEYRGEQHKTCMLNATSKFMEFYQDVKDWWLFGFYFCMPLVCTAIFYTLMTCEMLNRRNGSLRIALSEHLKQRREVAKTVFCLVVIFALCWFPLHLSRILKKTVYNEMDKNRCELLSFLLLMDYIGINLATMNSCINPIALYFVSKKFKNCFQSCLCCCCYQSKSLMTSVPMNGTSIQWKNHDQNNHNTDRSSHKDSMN
Procedure: I: […] A cDNA coding for human ETA receptors of human placenta was cloned ([…]. Yang, Y. Furuichi and C. Miyamoto, BBRC 180, 1265-1272) and expressed in the baculovirus-insect cell system. Baculovirus-infected insect cells from a 23 l fermenter are centrifuged off (3000×g, 15 minutes, 4° C.) 60 hours after the infection, re-suspended in Tris buffer (5 mM, pH 7.4, 1 mM MgCl2) and again centrifuged. After a further re-suspension and centrifugation the cells are suspended in 800 ml of the same buffer and […] at -120° C. The cells disintegrate when the suspension in this hypotonic buffer mixture is thawed. After a repeated freeze-drying/thawing cycle the suspension is homogenized and centrifuged (25000×g, 15 minutes, 4° C.). After suspension in Tris buffer (75 mM, pH 7.4, 25 mM MgCl2, 250 mM sucrose) 1 ml aliquots (protein content about 3.5 mg/ml) are stored at -85° C. […] The incubation is carried out at 20° C. for 2 hours or at 4° C. for 24 hours. The separation of free and membrane-bound radio-ligands is carried out by filtration over a glass fibre filter.

[2] = target: T2, endothelin-induced contractions in isolated rat aorta rings (Rattus norvegicus, UniProt P26684); assay: Inhibition of endothelin-induced contractions in isolated rat aorta rings; format: cell-based, rat (Wistar-Kyoto); settings: read-out: pA2 value; Dose ratio (switch to the right) (converted)
T2 construct: cut out from the thorax aorta of adult Wistar-Kyoto rats; from tissue; host or cells: thoracic aorta rings of adult Wistar-Kyoto rats, endothelium removed
T2 sequence (P26684 21-426): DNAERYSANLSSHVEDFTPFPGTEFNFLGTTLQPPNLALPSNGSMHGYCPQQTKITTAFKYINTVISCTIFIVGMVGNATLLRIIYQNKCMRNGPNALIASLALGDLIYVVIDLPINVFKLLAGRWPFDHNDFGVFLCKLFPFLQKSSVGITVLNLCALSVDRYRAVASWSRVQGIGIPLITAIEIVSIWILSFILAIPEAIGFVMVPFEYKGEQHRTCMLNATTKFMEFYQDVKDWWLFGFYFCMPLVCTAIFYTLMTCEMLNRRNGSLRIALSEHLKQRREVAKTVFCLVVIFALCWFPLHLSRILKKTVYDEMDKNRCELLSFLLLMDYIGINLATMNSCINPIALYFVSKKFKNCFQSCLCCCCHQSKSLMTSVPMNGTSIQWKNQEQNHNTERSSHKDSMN
Procedure: Rings with a length of 5 mm were cut out from the thorax aorta of adult Wistar-Kyoto rats. The endothelium was removed by lightly rubbing the internal surface. Each ring was immersed at 37° C. in 10 ml of Krebs-Henseleit solution in an isolated bath while gassing with 95% O2 and 5% CO2. The isometric stretching of the rings was measured. The rings were stretched to a pre-tension of 3 g.
The corresponding pA2 value, which is a measure of the activity of the test compound, was calculated using a computer programme according to the following equation from the "dose ratio" DR for each individual dosage-activity curve.
pA2 =log(DR-1)-log(antagonist-concentration)

Row | IC50 [1] | Kb [2] | SMILES
1 | 6 nM | 0.251 nM | COc1ccccc1Oc1c(NS(=O)(=O)c2ccc(C(C)(C)C)cc2)nc(-c2ccnc(-c3nnn[nH]3)c2)nc1OCCOC(=O)Nc1ccccn1 [Example 4, 2-[6-(4-tert-butyl-phenylsulphonylamino)-5-(2-methoxy-phenoxy)-2-(2-1H-tetrazol-5-yl-pyridin-4-yl)-pyrimidin-4-yl-oxy]-ethyl pyridin-2-ylcarbamate]
2 | 4 nM | 0.1 nM | COc1ccccc1Oc1c(NS(=O)(=O)c2ccc(C)cn2)nc(-c2ccnc(-c3nnn[nH]3)c2)nc1OCCO [Example 29, 5-methyl-pyridine-2-sulphonic acid 6-(2-hydroxy-ethoxy)-5-(2-methoxy-phenoxy)-2-(2-1H-tetrazol-5-yl-pyridin-4-yl)-pyrimidin-4-ylamide]
3 | 2 nM | 0.316 nM | COc1ccccc1Oc1c(NS(=O)(=O)c2ccccc2)nc(-c2ccnc(-c3nnn[nH]3)c2)nc1OCCOC(=O)Nc1ccccn1 [Example 35, 2-[5-(2-methoxy-phenoxy)-6-phenyl-sulphonylamino-2-(2-1H-tetrazol-5-yl-pyridin-4-yl)-pyrimidin-4-yloxy]-ethyl pyridin-2-ylcarbamate]
4 | 8 nM | 0.398 nM | COc1ccccc1Oc1c(NS(=O)(=O)c2ccc(C)cc2)nc(-c2ccnc(-c3nnn[nH]3)c2)nc1OCCOC(=O)Nc1ccccn1 [Example 36, 2-[5-(2-methoxy-phenoxy)-6-(4-methyl-phenylsulphonylamino)-2-(2-1H-tetrazol-5-yl-pyridin-4-yl)-pyrimidin-4-yloxy]-ethyl pyridin-2-ylcarbamate]
5 | 8 nM | 0.0631 nM | COc1ccccc1Oc1c(NS(=O)(=O)c2ccc(SC)cc2)nc(-c2ccnc(-c3nnn[nH]3)c2)nc1OCCOC(=O)Nc1ccccn1 [Example 40, 2-[5-(2-methoxy-phenoxy)-6-(4-methylsulphanylphenylsulphonylamino)-2-(2-1H-tetrazol-5-yl-pyridin-4-yl)-pyrimidin-4-yloxy]-ethyl pyridin-2-ylcarbamate]
6 | 1 nM | 0.0251 nM | COc1ccccc1Oc1c(NS(=O)(=O)c2ccc3c(c2)OCO3)nc(-c2ccnc(-c3nnn[nH]3)c2)nc1OCCOC(=O)Nc1ccccn1 [Example 41, 2-[6-(1,3-benzodioxol-5-yl-sulphonylamino)-5-(2-methoxy-phenoxy)-2-(2-1H-tetrazol-5-yl-pyridin-4-yl)-pyrimidin-4-yloxy]-ethyl pyridin-2-ylcarbamate]
